Source: patent US8084219B2, “Methods for detecting and analyzing N-glycolylneuraminic acid (Neu5Gc) in biological materials” (The Regents of the University of California, priority 2003, dated 2011)

Experiments:
Caco-2 cells = experiment: Feeding of human epithelial cells with Neu5Gc; type: cell-based; conditions: Caco-2, 3 mM Neu5Gc for 3 days, HPLC
Method: Feeding of Human Epithelial Cells with Neu5Gc—Caco-2 cells (human epithelial cells isolated from a primary colon carcinoma, ATCC, Manassas, Va.), were propagated in α-MEM (Gibco, Invitrogen Corporation, San Diego, Calif.) supplemented with 20% heat inactivated Fetal Calf Serum, at 37° C., 5% CO2. Prior to feeding, the cells were split and cultured for 4 days in α-MEM supplemented with 20% heat inactivated premium human serum type AB (Irvine scientific, Santa Ana, Calif.). Cells were then cultured in the presence of various concentrations of free Neu5Gc (0, 0.3, 1 and 3 mM, respectively) for 3 days at 37° C. Cells were then washed with cold PBS, scraped into 20 mM sodium phosphate pH 7.5 and sonicated. The protein extract was quantified and analysed by Western blot using the anti-Neu5Gc antibody.
Although human cells cultured in fetal calf serum express cell surface Neu5Gc in small amounts (Muchmore, et al., supra, and Oetke, et al., supra), this could represent either metabolic incorporation or non-specific absorption. Human epithelial cells were cultured in human serum until no traces of Neu5Gc derived from fetal calf serum could be detected by HPLC (typically ˜4 days). Culture was then continued for 3 days in the absence or presence of varying amounts of free Neu5Gc. […]

[1] = Human Neu5Gc ingestion study; type: in vivo
Method: Human Neu5Gc Ingestion Study—Human subjects were enlisted in the study, and were told to avoid animal foods for 2 days, all medications for 1 day, use a lanolin-free (Neu5Gc-free) shampoo for 2 days, and ingest only fruit juice on the morning of study. Subjects then drank 150 mg of porcine submaxillary mucin Sias (see above) dissolved in 100 ml water. For the next 6 h they drank a 1:1 mixture of fruit juice and soymilk (Sia free) at ˜2 ml/Kg/hr. Serum, urine and saliva samples were obtained at multiple time points. Human saliva was collected by chewing parafilm, after washing the mouth out well with water. Urine volume and pH were recorded prior to centrifugation at 1000 g for 10 min, and collection of the supernatant. All samples were stored frozen at −20° C. Head hairs (˜20) and/or facial hair trimmings (from men) were collected prior to, and on several days after Neu5Gc ingestion.
Purification and analysis of Sialic Acids and N-acylmannosamines from Human Samples—Human salivary mucin was precipitated by adjusting to pH 3 with 100 mM acetic acid, stirring at 4° C. overnight, collected at 14,000 g for 10 min, and washed twice with 1 ml of ice-cold PBS. Human hair clippings were washed in 100 mM ice-cold acetic acid for two h and crushed in a clean ceramic mortar. Bound Sias from saliva, hair or serum were released with mild acid as above, filtered through Microcon 10 filters (Millipore, Bedford, Mass.), dried down, reconstituted in water and analyzed for Sia content by DMB-HPLC.
Five ml urine aliquots were diluted 5-fold and loaded onto 10 ml columns of AG50W-X2 resin (H^+ form, BioRad, Richmond, Calif.) equilibrated in water. The run-through and washes (2×10 ml of water) were pooled and loaded onto 10 ml columns of AG1X8 resin (Formate form, BioRad) equilibrated in water. The combined run-through and washes (2×10 ml of water) were lyophilized. After washing with 5 volumes of 10 mM formic acid, free Sias were eluted with 5 volumes of 1M formic acid, diluted two-fold with water, and lyophilized.
Free Sias were purified from urine samples, and analyzed for Neu5Gc content by DMB-HPLC. Since overlapping fluorescent peaks prevented definitive identification and quantification, HPLC fractions eluting at the time expected for DMB-Neu5Gc were collected and subjected to MS, confirming an increase in ion peaks at m/z 424 and m/z 442. The sum of ion intensities of m/z 424 and m/z 442 at each time point provided an estimate of Neu5Gc quantity. Ingested Neu5Gc was rapidly absorbed and excreted into the urine (FIG. 3A). About 3-6% of the ingested dose was excreted within 4-6 h, with the peak excretion rate at 2-3 h and a return to baseline levels within 24 h.

[2] = tested on: anti-Neu5Gc antibodies in human sera; experiment: Inhibition of human serum anti-Neu5Gc antibody ELISA reactivity to Neu5Gc-PAA; type: binding; conditions: free sugar at 2 mM
Method: Detection of Anti-Neu5Gc and anti-α-Gal specific antibodies in human sera—Microtiter (Costar, Corning, N.Y.) plate wells were coated with Neu5Ac-polyacrylamide(PAA), Neu5Gc-PAA, or Galα1-3GalBeta1-4GlcNAc-PAA (Glycotech, Rockville, Md.) at a concentration of 500 ng/well, in 50 mM sodium carbonate-bicarbonate buffer pH 9.5, at 4° C. overnight. After washing with TBS, pH 7.5 and blocking with TBST for 2 h at RT, triplicate wells were incubated with 1:50 dilutions of serum in TBST at RT for 4 h. Wells were washed 5 times with TBS, and incubated with HRP-conjugated mouse anti-human IgA (Calbiochem, San Diego, Calif.), anti-human IgG (Jackson ImmunoResearch, West Grove, Pa.) or anti-human IgM (KPL, Gaithersburg, Md.) each diluted in TBST at 1:20,000, at RT for 1.5 hour. The IgG anti-Neu5Gc and anti-α-Gal antibodies were quantitated using a standard curve of normal human IgG coated to the wells under the same general conditions.
Anti-Neu5Gc antibodies of the IgA, IgM and IgG classes were detected in the sera of all three subjects who ingested Neu5Gc at baseline, but no increases occurred after Neu5Gc ingestion (not shown). […] Specificity was confirmed by showing that anti-Neu5Gc reactivity was blocked by chimpanzee serum in a concentration-dependent manner, but not by equivalent amounts of a Neu5Gc antibody-negative human serum (FIG. 4B). […]

human cells = experiment: Human cells fed with free Neu5Gc, incorporation into endogenous glycoproteins; type: cell-based
From the text: It is therefore reasoned that the Neu5Gc in normal humans originates from exogenous sources. […] Likewise, human cells cultured in FCS incorporated Neu5Gc from the serum glycoproteins into the native glycoconjugates of the cells (Muchmore, E. A., Diaz, S, and Varki, A. (1998). Am J Phys Anthropol 107:187-198; and Tangvoranuntakul, et al., supra.

highest level of incorporation of Neu5Gc into the cells, of total Sia (Caco-2 cells) [%] | subjects with increase of Neu5Gc in salivary mucins ([1]; 2 days after ingestion, MS) | time of decline of salivary mucin Neu5Gc to baseline levels ([1]; after ingestion) [days] | Neu5Gc in serum samples ([1]; any time points after ingestion) | time of peak urinary excretion rate ([1]; oral 150 mg) [h] | time of return of urinary excretion to baseline levels ([1]; oral 150 mg) [h] | reactions to Neu5Gc ingestion ([1]; oral 150 mg, human subjects) | share of the ingested dose excreted into the urine ([1]; within 4-6 h after oral 150 mg porcine submaxillary mucin Sias, MS estimate) | level of Neu5Gc incorporated into endogenous glycoproteins (human cells) [%] | SMILES | inhibition of anti-Neu5Gc reactivity of human sera [2]
85 | 2 of 3 | ≤ 4 | not detected | 2 to 3 | ≤ 24 | no immediate reactions | 3-6% | > 50 | O=C(CO)N[C@H]1[C@H]([C@H](O)[C@H](O)CO)OC(O)(C(=O)O)C[C@@H]1O (some centres unmarked) [Neu5Gc, N-glycolylneuraminic acid] | > 70%
– | – | – | – | – | – | – | – | – | CC(=O)N[C@H]1[C@H]([C@H](O)[C@H](O)CO)OC(O)(C(=O)O)C[C@@H]1O (some centres unmarked) [Neu5Ac, N-acetylneuraminic acid, reference compound] | not
